Experimental data reported in patent US11753407B2, “Compounds for treating spinal muscular atrophy” (PTC Therapeutics, Inc., priority 2012, dated 2023).

Experiments:
[1] = test system: SMN2 minigene mRNA (SMN2-A minigene) in HEK293H cells; assay: SMN2 minigene mRNA splicing RT-qPCR assay in cultured cells; type: cell-based, human; conditions: Homo sapiens, HEK293-H; concentration increasing full length SMN2 mRNA 1.5-fold relative to vehicle-treated cells; HEK293H cells with SMN2-A minigene, 24 hours, 7-point concentration data; read-out: EC1.5x for production of full length SMN2 mRNA
Method in brief: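 EC1.5× = concentration raising full-length SMN2 minigene mRNA 1.5-fold over vehicle, from 7-point curves in duplicate. Stably transfected HEK293H cells exposed 24 h at 37 °C; lysates assayed by multiplex RT-qPCR, minigene FL signal normalized to GAPDH via modified ΔΔCt.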

[2] = test system: Smn protein in SMA patient fibroblast cells (GM03813); assay: Smn protein assay in cultured cells (SMN HTRF); type: cell-based, human; conditions: SMA patient fibroblast cells, 48 hours; for maximum fold (Fold) increase of Smn protein: 7-point concentration data, fold relative to vehicle control; for EC1.5x for Smn protein expression: 7-point concentration curve, SMN HTRF, concentration producing 1.5 times Smn protein vs DMSO vehicle control
Method in brief: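 Smn protein quantified by HTRF with anti-SMN d2/kryptate pair, 665/620 nm ratio blank-corrected, in RIPA lysates of GM03813 fibroblasts after 48 h compound exposure (7 concentrations, 3.16-fold steps, triplicates). Values: concentration producing 1.5× vehicle Smn level, and maximal fold increase.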

melting point [°C]	SMILES	EC (1.5-fold increase) [1] [µM]	maximum fold (Fold) increase of Smn protein [2]	EC1.5x for Smn protein expression [2]
180 to 186	CCOc1ccc(-c2cc(=O)n3cc(N4CCNCC4)ccc3n2)cc1F [Cpd 153, 2-(4-ethoxy-3-fluorophenyl)-7-(piperazin-1-yl)-4H-pyrido[1,2-a]pyrimidin-4-one]	0.3 to 1	** (a fold increase between >1.2 and ≤1.35 is indicated by two stars (**))	
142 to 147	Cc1csc(-c2cc(=O)n3cc(N4CCNCC4)ccc3n2)n1 [Cpd 163, 2-(4-methyl-1,3-thiazol-2-yl)-7-(piperazin-1-yl)-4H-pyrido[1,2-a]pyrimidin-4-one]	1 to 3	*** (a fold increase between >1.35 and ≤1.5 is indicated by three stars (***))	
181 to 183	COc1ccc(-c2cc(=O)n3cc(C4CCN(C)CC4)ccc3n2)cc1OC [Cpd 164, 2-(3,4-dimethoxyphenyl)-7-(1-methylpiperidin-4-yl)-4H-pyrido[1,2-a]pyrimidin-4-one]	0.3 to 1	**** (a fold increase between >1.5 and ≤1.65 is indicated by four stars (****))	** (an EC1.5× between >1 μM and ≤3 μM is indicated by two stars (**))
178 to 183	Cc1nc2ccc(-c3cc(=O)n4cc(N5CCN(C)CC5)ccc4n3)cc2o1 [Cpd 171, 2-(2-methyl-1,3-benzoxazol-6-yl)-7-(4-methylpiperazin-1-yl)-4H-pyrido[1,2-a]pyrimidin-4-one]	< 0.1	***** (a fold increase >1.65 is indicated by five stars (*****))	**** (an EC1.5x≤0.3 μM is indicated by four stars (****))
204 to 206	Cc1cn(-c2cc(=O)n3cc(N4CCNCC4)ccc3n2)cn1 [Cpd 179, 2-(4-methyl-1H-imidazol-1-yl)-7-(piperazin-1-yl)-4H-pyrido[1,2-a]pyrimidin-4-one]	0.3 to 1	***** (a fold increase >1.65 is indicated by five stars (*****))	*** (an EC1.5× between >0.3 μM and ≤1 μM is indicated by three stars (***))
166 to 170	COc1ncc(-c2cc(=O)n3cc(N4CCNCC4)ccc3n2)cc1F [Cpd 182, 2-(5-fluoro-6-methoxypyridin-3-yl)-7-(piperazin-1-yl)-4H-pyrido[1,2-a]pyrimidin-4-one]	0.3 to 1	**** (a fold increase between >1.5 and ≤1.65 is indicated by four stars (****))	*** (an EC1.5× between >0.3 μM and ≤1 μM is indicated by three stars (***))
168 to 170	C[C@H]1CN(c2ccc3nc(-c4cnn(C)c4)cc(=O)n3c2)CCN1 [Cpd 191, 7-[(3S)-3-methylpiperazin-1-yl]-2-(1-methyl-1H-pyrazol-4-yl)-4H-pyrido[1,2-a]pyrimidin-4-one]	1 to 3	**** (a fold increase between >1.5 and ≤1.65 is indicated by four stars (****))	** (an EC1.5× between >1 μM and ≤3 μM is indicated by two stars (**))
282 to 288	Cc1cn2cc(-c3cc(=O)n4cc(N5CCNCC5)ccc4n3)cc(F)c2n1 [Cpd 209, 2-(8-fluoro-2-methylimidazo[1,2-a]pyridin-6-yl)-7-(piperazin-1-yl)-4H-pyrido[1,2-a]pyrimidin-4-one]	< 0.1	**** (a fold increase between >1.5 and ≤1.65 is indicated by four stars (****))	**** (an EC1.5x≤0.3 μM is indicated by four stars (****))
202 to 206	COc1ccc(-c2ccc3nc(N4CCNCC4)cc(=O)n3c2)cc1F [Cpd 220, 7-(3-fluoro-4-methoxyphenyl)-2-(piperazin-1-yl)-4H-pyrido[1,2-a]pyrimidin-4-one]	0.3 to 1	** (a fold increase between >1.2 and ≤1.35 is indicated by two stars (**))	
221 to 224	COc1ccc(-c2cc(=O)n3cc(OC4CCNCC4)ccc3n2)cc1OC [Cpd 237, 2-(3,4-dimethoxyphenyl)-7-(piperidin-4-yloxy)-4H-pyrido[1,2-a]pyrimidin-4-one]	1 to 3	*** (a fold increase between >1.35 and ≤1.5 is indicated by three stars (***))	
143 to 149	COc1ccc(-c2cc(=O)n3cc(N(C)[C@@H]4CCN(C)C4)ccc3n2)cc1F [Cpd 239, 2-(3-fluoro-4-methoxyphenyl)-7-{methyl[(3R)-1-methylpyrrolidin-3-yl]amino}-4H-pyrido[1,2-a]pyrimidin-4-one]	1 to 3	* (A maximum fold increase of ≤1.2 is indicated by one star (*))	
146 to 150	COc1ccc(-c2cc(=O)n3cc(C4=CCCNC4)ccc3n2)cc1OC [Cpd 263, 2-(3,4-dimethoxyphenyl)-7-(1,2,5,6-tetrahydropyridin-3-yl)-4H-pyrido[1,2-a]pyrimidin-4-one]	0.3 to 1	**** (a fold increase between >1.5 and ≤1.65 is indicated by four stars (****))	*** (an EC1.5× between >0.3 μM and ≤1 μM is indicated by three stars (***))
268 to 283	COc1ccc(-c2ccc3nc(N4CCC(N)CC4)cc(=O)n3c2)cc1F [Cpd 276, 2-(4-aminopiperidin-1-yl)-7-(3-fluoro-4-methoxyphenyl)-4H-pyrido[1,2-a]pyrimidin-4-one]	0.3 to 1	* (A maximum fold increase of ≤1.2 is indicated by one star (*))	

SMILES	melting point [°C]	EC (1.5-fold increase) [1] [µM]	maximum fold (Fold) increase of Smn protein [2]	EC1.5x for Smn protein expression [2]
COc1ccc(-c2cc(=O)n3cc(C4=CCN(C)CC4)ccc3n2)cc1OC [Cpd 188, 2-(3,4-dimethoxyphenyl)-7-(1-methyl-1,2,3,6-tetrahydropyridin-4-yl)-4H-pyrido[1,2-a]pyrimidin-4-one]	165 to 168	0.1 to 0.3	***** (a fold increase >1.65 is indicated by five stars (*****))	*** (an EC1.5× between >0.3 μM and ≤1 μM is indicated by three stars (***))
COc1ccc(-c2cc(=O)n3cc(C4=CCNCC4)ccc3c2)cc1OC [Cpd 245, 2-(3,4-dimethoxyphenyl)-7-(1,2,3,6-tetrahydropyridin-4-yl)-4H-quinolizin-4-one]	174 to 176	0.3 to 1	** (a fold increase between >1.2 and ≤1.35 is indicated by two stars (**))	
COc1ccc(-c2cc(=O)n3cc(C4=CCN(C)CC4)ccc3c2)cc1OC [Cpd 249, 2-(3,4-dimethoxyphenyl)-7-(1-methyl-1,2,3,6-tetrahydropyridin-4-yl)-4H-quinolizin-4-one]	194 to 196	0.3 to 1	* (A maximum fold increase of ≤1.2 is indicated by one star (*))	
